Literature values, collected in patent US7759386B2, “Pharmaceutical compositions of estrogenic agents” (Wyeth LLC, priority 2000, dated 2010).

Settings: after 1 year of storage; best antioxidant system described; solid state, tablets

C=C1CC[C@H](O)C/C1=C/C=C1\CCC[C@]2(C)[C@@H]([C@H](C)CCCC(C)C)CC[C@@H]12 [cholecalciferol]
original content remaining: 87.6%
